Experimental data from patent publication US6589570B1, “Pharmaceutical formulation useful for the treatment of hepatitis B, hepatitis C and other viral infections of the liver and a process for its preparation” (priority 1999, dated 2003).

Key:
[1] = tested on: isolated rat hepatocytes; test: Anti hepatotoxic potential, β-galactosamine challenged isolated rat hepatocytes; format: cell-based; details: 0.5 mM
Procedure: The liver was perfused through the portal vein with 30-50 ml of cold sodium citrate (0.027M) in calcium free lockets solution. During the perfusion, the liver gets blanched and fully distended. Perfusion is generally completed within 5 minutes of anaesthetizing the animal. The perfused liver is excised and washed well with the perfusion fluid and pressed in folds of sterile filter paper, weighed and cut into several small pieces and with a pair of scissors. A known wet weight of the liver (usually between 2-6 gm) was transferred with 5 volume of cold 0.25M sucrose into a sterile glass homogenizer and finely grounded. The cell suspension was filtered once, without application of pressure through 200-mesh brass gauze to remove strands of connective tissue and clumps of cells. The suspension contained some cell debris and blood cells at this stage, which were removed by centrifugation at a low speed (100-200 g) for 2 minutes. After removal of the supernatant, the cell sediment was resuspended in a known volume of the minimum essential medium for further studies. […] The cells, which have not taken the dye, are live cells, which are counted. […] Four sets of isolated rat hepatocyte cultures were put up. […] Set III with 0.5 mM concentration of β-galactosamine, a known hepatotoxic agent and set IV was treated with β-galactosamine and then protected with the formulation of the present invention. […]

[2] = tested on: cultured rat hepatocytes; details: cited from earlier work

Row | Structure (SMILES) | hepatotoxicity on isolated rat hepatocytes [1] | CCl4 or galatosamine induced cytotoxicity to cultured rat hepatocytes [2]
1 | N[C@@H]1[C@@H](O)[C@@H](O)[C@@H](CO)O[C@H]1O [β-galactosamine] | profound hepatotoxic chemical | –
2 | COC[C@@H](Cc1ccc(OC)c(OC)c1)[C@@H](COC)Cc1ccc(OC)c(OC)c1 [Phyllanthin] | – | reduced
3 | COC[C@@H]1Cc2cc(OC)c3c(c2[C@H](c2ccc(OC)c(OC)c2)[C@H]1COC)OCO3 [Hypo phyllanthin] | – | reduced
